Data as given in US7427395B2, “Chemotherapeutic agent-incorporated pharmaceutical preparation” (Genomidea Inc., priority 2002, dated 2008).
Read-outs that look alike come from different tables or passages of the source.

Tests used:
[1] = system: mouse colon carcinoma cell CT26; conditions: 30 min at 37° C., counted 2 days later
Experimental: A microtube containing the sample was centrifuged at 15,000 rpm for 15 minutes at 4° C. to give the HVJ-E vector as a precipitate, and the supernatant was removed. […] Further, 2 μl of 3% Triton-X100 was added thereto to prepare a sample containing Triton-X100 at a final concentration of 0.1%, which was then left on ice for 15 minutes. Thereafter, 500 μl PBS solution was added thereto. The microtube was centrifuged at 15,000 rpm for 15 minutes at 4° C., and the supernatant was removed without removing the precipitate, and 500 μl PBS solution was added again to the precipitate. The microtube was centrifuged again at 15,000 rpm for 15 minutes at 4° C., and the supernatant was removed without removing the precipitate.
The resulting precipitate was suspended in 180 μl PBS, and the resulting sample solution was pipetted in a volume of 30 μl/microtube into 6 microtubes. Five microlitters of protamine sulfate solution prepared at 5 mg/ml and 500 μl DMEM solution (Dulbecco's modified Eagle medium) were added to each tube.
The above sample solution was added to mouse colon carcinoma cell CT26 prepared on a 6-well plate. The plate was kept for 30 minutes in an incubator at 37° C., and then the medium was exchanged with 500 μl medium (DMEM containing 10% FCS). The cells were incubated for 2 days in a CO2 incubator at 37° C. Two days later, the number of viable cells was counted to evaluate the anticancer effect.

colon carcinoma CT26 = assay: In vivo experiment: tumor volume of subcutaneously transplanted CT26 after administration into the tumor (Example 2); conditions: for average tumor volume (mean): 100 μl/mouse into the tumor, n=8
Experimental: A microtube containing the sample was centrifuged at 15,000 rpm for 15 minutes at 4° C. to give the HVJ-E vector as a precipitate, and the supernatant was removed. […] Further, 2 μl of 3% Triton-X100 was added thereto to the final concentration of 0.1%, which was then kept on ice for 15 minutes. Thereafter, 500 μl PBS solution was added thereto. The microtube was centrifuged at 15,000 rpm for 15 minutes at 4° C., and the supernatant was removed without removing the precipitate, and 500 μl PBS solution was added thereto. The microtube was centrifuged again at 15,000 rpm for 15 minutes at 4° C., and the supernatant was removed without removing the precipitate. The resulting precipitate was suspended in 120 μl PBS.
In this animal experiment, BALB/c mice (8-week-old, male) were used. […] The CT-26 cells to be transplanted were suspended in DMEM medium containing 10% FCS, and 5×10^6 cells (100 μl PBS/mouse) were transplanted in the back. The mice were anesthetized by intraperitoneal administration of 500 μl of 20-fold-diluted Nembutal injection. The volume of the transplanted cancer cells was estimated by calculation of major axis×minor axis×minor axis/2. When the diameter of the tumor reached 7 to 8 mm one week after transplantation, 100 μl of the sample prepared above was administered into the site of the cancer in the mouse. On Days 7, 10, 13, 16 and 19 (that is, 3-day intervals) after transplantation of the cancer cells, the tumor diameter was measured to evaluate the anticancer effect. The number of animals was 8 in each group.

[2] = system: Mouse colon cancer-derived CT-26 cells; assay: In vivo experiment (2): tumor volume and tumor weight of transplanted CT-26, HVJ-E/BLM into the tumor with or without intraperitoneal CDDP (Example 3); parameters: species or system BALB/cAnNCrj male mice
[3] = Day 16 (9 days after sample administration)

Molecule	Number of viable cells (mean) ([1]; 1/50 bleomycin group: bleomycin 50 μg/DMEM 500 μl/well)	Number of viable cells (mean) ([1]; 1/500 bleomycin group: bleomycin 5 μg/DMEM 500 μl/well)	Number of viable cells (mean) ([1]; 1/500 bleomycin group: bleomycin 5 μg/DMEM 500 μl/well, listed as bleomycin)	Number of viable cells (mean) ([1]; 1/5,000 bleomycin group: bleomycin 500 ng/DMEM 500 μl/well)	Number of viable cells (mean) ([1]; 1/5,000 bleomycin group: bleomycin 500 ng/DMEM 500 μl/well, listed as bleomycin)	average tumor volume (mean) (colon carcinoma CT26; Day 7 (time of sample administration)) [mm^3]	average tumor volume (mean) (colon carcinoma CT26; Day 10 (Day 3 after sample administration)) [mm^3]	average tumor volume (mean) (colon carcinoma CT26; Day 13) [mm^3]	tumor volume shrinkage effect relative to the PBS administration group (0%) (colon carcinoma CT26; [3]) [%]	average tumor volume (mean) (colon carcinoma CT26; [3]) [mm^3]	average tumor volume (mean) (colon carcinoma CT26; Day 16 (9 days after sample administration), listed as BLM)	antitumor effect in vivo (in words) (colon carcinoma CT26; direct administration into the solid tumor)	tumor weight on Day 21 after administration ([2]; CDDP 0.2 mg/body i.p. once, alone or with 13 mg/tumor HVJ-E/BLM into the tumor) [mg]	average tumor volume on Day 21 ([2]; CDDP 0.2 mg/body i.p. once, alone or with 13 mg/tumor HVJ-E/BLM into the tumor, 10 mice) [mm^3]	tumor weight on Day 21 after administration ([2]; CDDP 0.4 mg/body i.p. once, alone or with HVJ-E into the tumor) [mg]	average tumor volume on Day 21 ([2]; CDDP 0.4 mg/body i.p. once, 3 mice) [mm^3]
bleomycin	81800	164600	164,600	196800	196,800	158.4	413.70	754.7	3.4	1234.6	1,235 mm^3	Antitumor effect was hardly recognized				
[NH2][Pt]([NH2])([Cl])[Cl] [CDDP, cisplatin]													1619.79	1720.14	1164.13	1367.62
